Read-outs that look alike come from different tables or passages of the source.
Key:
BRG-1 = molecular target: T1, BRG-1 (Homo sapiens, UniProt P51532); experiment: ATPase catalytic activity of BRG-1, ADP-Glo in vitro biochemical assay; conditions: 30 nM BRG-1, 400 μM ATP
T1 construct: made in house; host or cells: High Five insect cells

BRM = molecular target: T2, BRM (Homo sapiens, UniProt P51531); experiment: ATPase catalytic activity of BRM, ADP-Glo in vitro biochemical assay; conditions: 30 nM BRM, 400 μM ATP
T2 construct: made in house; host or cells: High Five insect cells

[1] = ATPase catalytic activity, read-out: BRG1 IP50
[2] = ATPase catalytic activity, read-out: BRM IP50
[3] = ATPase catalytic activity, read-out: BRG1 IP50 (μM)*
[4] = ATPase catalytic activity, read-out: BRM IP50 (μM)*

T2 sequence (P51531 whole entry): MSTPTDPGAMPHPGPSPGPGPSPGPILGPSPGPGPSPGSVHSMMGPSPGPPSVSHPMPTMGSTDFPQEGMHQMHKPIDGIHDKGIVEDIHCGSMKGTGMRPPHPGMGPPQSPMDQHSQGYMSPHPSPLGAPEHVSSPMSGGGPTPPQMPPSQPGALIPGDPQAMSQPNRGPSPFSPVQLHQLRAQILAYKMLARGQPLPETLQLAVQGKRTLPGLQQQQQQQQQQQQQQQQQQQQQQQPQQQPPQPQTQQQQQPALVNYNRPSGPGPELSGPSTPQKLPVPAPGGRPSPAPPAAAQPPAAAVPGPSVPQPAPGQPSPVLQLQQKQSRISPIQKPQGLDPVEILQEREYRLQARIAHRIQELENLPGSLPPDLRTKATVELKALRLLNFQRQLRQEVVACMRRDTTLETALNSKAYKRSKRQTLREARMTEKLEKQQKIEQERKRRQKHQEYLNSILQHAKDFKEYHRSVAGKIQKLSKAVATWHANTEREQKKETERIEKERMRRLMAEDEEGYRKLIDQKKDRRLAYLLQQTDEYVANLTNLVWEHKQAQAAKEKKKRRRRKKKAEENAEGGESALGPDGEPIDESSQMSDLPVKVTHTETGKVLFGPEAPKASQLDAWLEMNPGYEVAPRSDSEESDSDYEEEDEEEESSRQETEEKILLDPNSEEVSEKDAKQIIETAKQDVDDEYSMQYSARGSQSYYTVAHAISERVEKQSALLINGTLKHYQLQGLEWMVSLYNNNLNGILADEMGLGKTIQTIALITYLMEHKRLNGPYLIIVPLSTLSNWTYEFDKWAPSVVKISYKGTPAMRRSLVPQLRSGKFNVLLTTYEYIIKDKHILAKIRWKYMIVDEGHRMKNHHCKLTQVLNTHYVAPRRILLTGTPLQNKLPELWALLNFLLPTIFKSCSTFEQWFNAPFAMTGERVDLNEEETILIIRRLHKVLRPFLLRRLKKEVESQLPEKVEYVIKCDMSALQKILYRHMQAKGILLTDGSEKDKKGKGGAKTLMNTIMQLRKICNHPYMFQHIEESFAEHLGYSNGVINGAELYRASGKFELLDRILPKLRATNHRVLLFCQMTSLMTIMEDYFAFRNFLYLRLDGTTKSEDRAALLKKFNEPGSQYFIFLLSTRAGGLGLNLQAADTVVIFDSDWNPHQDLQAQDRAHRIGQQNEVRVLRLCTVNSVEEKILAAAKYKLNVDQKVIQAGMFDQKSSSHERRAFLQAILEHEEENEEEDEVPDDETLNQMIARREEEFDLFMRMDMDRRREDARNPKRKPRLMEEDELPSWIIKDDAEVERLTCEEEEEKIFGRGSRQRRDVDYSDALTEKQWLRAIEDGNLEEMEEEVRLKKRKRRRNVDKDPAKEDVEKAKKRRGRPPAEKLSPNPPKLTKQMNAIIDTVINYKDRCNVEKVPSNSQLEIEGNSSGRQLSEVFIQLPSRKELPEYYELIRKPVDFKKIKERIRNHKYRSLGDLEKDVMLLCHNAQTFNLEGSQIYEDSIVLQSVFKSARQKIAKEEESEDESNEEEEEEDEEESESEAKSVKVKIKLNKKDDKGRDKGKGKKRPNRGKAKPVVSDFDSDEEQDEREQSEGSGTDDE
T1 sequence (P51532 whole entry): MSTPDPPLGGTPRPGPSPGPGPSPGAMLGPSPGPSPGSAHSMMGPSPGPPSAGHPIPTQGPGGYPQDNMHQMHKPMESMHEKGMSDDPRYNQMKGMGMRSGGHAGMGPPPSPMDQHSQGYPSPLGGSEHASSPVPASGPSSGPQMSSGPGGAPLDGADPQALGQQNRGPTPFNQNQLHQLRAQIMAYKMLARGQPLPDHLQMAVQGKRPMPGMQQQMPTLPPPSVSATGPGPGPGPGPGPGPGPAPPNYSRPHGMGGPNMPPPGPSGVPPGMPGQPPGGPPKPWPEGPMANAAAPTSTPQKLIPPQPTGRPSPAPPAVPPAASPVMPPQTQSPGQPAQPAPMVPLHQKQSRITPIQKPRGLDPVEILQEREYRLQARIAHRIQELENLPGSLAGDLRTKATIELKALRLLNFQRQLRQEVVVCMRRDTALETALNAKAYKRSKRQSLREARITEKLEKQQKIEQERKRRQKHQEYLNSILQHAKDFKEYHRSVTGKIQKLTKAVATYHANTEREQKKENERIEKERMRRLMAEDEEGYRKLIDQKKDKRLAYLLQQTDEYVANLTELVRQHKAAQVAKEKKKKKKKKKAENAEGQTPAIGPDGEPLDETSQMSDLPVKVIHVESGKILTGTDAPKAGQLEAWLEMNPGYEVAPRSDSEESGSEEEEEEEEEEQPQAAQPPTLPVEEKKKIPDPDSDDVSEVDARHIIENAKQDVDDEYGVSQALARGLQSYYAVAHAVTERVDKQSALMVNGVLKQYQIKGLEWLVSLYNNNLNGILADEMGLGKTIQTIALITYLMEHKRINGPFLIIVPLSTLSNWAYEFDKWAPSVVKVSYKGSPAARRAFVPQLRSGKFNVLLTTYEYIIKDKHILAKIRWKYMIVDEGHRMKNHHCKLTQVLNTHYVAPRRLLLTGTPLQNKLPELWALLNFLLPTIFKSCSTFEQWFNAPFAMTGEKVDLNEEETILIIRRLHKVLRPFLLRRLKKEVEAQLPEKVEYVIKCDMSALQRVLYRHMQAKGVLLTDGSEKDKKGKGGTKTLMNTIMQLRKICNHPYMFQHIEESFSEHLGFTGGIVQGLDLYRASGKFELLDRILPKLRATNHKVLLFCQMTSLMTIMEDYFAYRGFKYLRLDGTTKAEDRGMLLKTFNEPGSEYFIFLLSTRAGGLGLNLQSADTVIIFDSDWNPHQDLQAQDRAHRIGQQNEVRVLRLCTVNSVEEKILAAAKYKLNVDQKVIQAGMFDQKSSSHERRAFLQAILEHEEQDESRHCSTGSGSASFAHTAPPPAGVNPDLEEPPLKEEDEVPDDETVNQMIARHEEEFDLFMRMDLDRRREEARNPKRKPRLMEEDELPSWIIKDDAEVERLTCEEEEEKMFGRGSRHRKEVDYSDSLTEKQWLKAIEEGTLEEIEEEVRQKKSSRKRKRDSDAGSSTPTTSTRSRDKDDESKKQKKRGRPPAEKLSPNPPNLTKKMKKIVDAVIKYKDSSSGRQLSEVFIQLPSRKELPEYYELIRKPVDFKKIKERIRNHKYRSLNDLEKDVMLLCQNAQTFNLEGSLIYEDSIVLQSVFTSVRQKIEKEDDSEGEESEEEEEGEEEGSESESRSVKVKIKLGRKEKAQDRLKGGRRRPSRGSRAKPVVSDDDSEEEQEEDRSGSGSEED

Row | IC50 (BRG-1; [1]) [µM] | IC50 (BRM; [2]) [µM] | IC50 (BRG-1; [3]) [µM] | IC50 (BRM; [4]) [µM] | other results | SMILES
1 | > 0.1 | > 0.01 | – | – | – | N#CC1(n2ccc(C(=O)NCC(=O)Nc3nc(-c4cccc(N5CCC5)n4)cs3)c2)CC1 [Compound 473]
2 | – | – | < 0.01 | < 0.01 | – | C[C@@H]1CN(c2cc(-c3csc(NC(=O)CNC(=O)c4ccn(S(C)(=O)=O)c4)n3)cc(F)c2F)C[C@H](C)O1 [Compound 384]
3 | > 0.01 | > 0.01 | – | – | – | CO[C@H]1C[C@H](c2cccc(-c3csc(NC(=O)CNC(=O)c4ccn(S(C)(=O)=O)c4)n3)c2)C1 [Compound 530]
4 | > 0.1 | > 0.1 | – | – | – | Cc1cc(N2CCN(c3cccc(-c4csc(NC(=O)CNC(=O)c5ccn(C(C)(C)C)c5)n4)n3)CC2)ccn1 [Compound 678]
5 | < 0.01 | < 0.01 | – | – | – | C[C@@H]1CN(c2cccc(-c3csc(NC(=O)[C@H](C)NC(=O)c4ccn(C5(C#N)COC5)c4)n3)n2)C[C@H](C)O1 [Compound 600]
6 | – | – | > 0.01 | > 0.01 | – | CS(=O)(=O)n1ccc(C(=O)NCC(=O)Nc2nc(-c3cccc(N4C[C@H]5COC[C@H]5C4)c3)cs2)c1 [Compound 223]
7 | > 0.01 | > 0.01 | – | – | – | COC[C@H](NC(=O)c1ccn(S(C)(=O)=O)c1)C(=O)Nc1nc(-c2cc(Cl)cc(C#N)c2)cs1 [Compound 721]
8 | < 0.01 | < 0.01 | – | – | – | Cc1cc(-c2cccc(-c3csc(NC(=O)CNC(=O)c4ccn(S(C)(=O)=O)c4)n3)c2)nc(C)n1 [Compound 412]
9 | – | – | < 0.01 | < 0.01 | – | CS(=O)(=O)n1ccc(C(=O)NCC(=O)Nc2nc(-c3cccc(N4CC(O)C4)c3)cs2)c1 [Compound 212]
10 | < 0.01 | < 0.01 | – | – | – | CS(=O)(=O)n1ccc(C(=O)NCC(=O)Nc2nc(-c3cccc(N4CCC4)c3F)cs2)c1 [Compound 499]
11 | < 0.01 | < 0.01 | – | – | – | COC[C@H](NC(=O)c1ccn(S(C)(=O)=O)c1)C(=O)Nc1nc(-c2cc(F)c3c(c2)OCO3)cs1 [Compound 695]
12 | – | – | < 0.01 | < 0.01 | – | CS(=O)(=O)n1ccc(C(=O)NCC(=O)Nc2nc(-c3cccc(N4CC[C@@H](O)[C@@H](F)C4)c3)cs2)c1 [Compound 196]
13 | – | – | > 0.01 | > 0.01 | – | C[C@]1(O)CCCN(c2cccc(-c3csc(NC(=O)CNC(=O)c4ccn(S(C)(=O)=O)c4)n3)c2)C1 [Compound 205]
14 | – | – | < 0.01 | < 0.01 | – | Cn1ncc(-c2cccc(-c3csc(NC(=O)CNC(=O)c4ccn(S(C)(=O)=O)c4)n3)c2)n1 [Compound 261]
15 | > 0.01 | > 0.01 | – | – | – | CC(C)(C)n1ccc(C(=O)NCC(=O)Nc2nc(-c3cccc(-c4cc5n(n4)CCOC5)c3)cs2)c1 [Compound 415]
16 | – | – | > 0.01 | > 0.01 | – | CO[C@H]1CN(c2cccc(-c3csc(NC(=O)CNC(=O)c4ccn(S(C)(=O)=O)c4)n3)c2)C[C@H]1OC [Compound 199]
17 | > 0.01 | > 0.01 | – | – | – | COCC1CN(c2cccc(-c3csc(NC(=O)CNC(=O)c4ccn(S(C)(=O)=O)c4)n3)c2)C1 [Compound 427]
18 | < 0.01 | < 0.01 | – | – | – | CC(=O)NCCOc1cc(-c2cccc(-c3csc(NC(=O)CNC(=O)c4ccn(S(C)(=O)=O)c4)n3)c2)ccn1 [Compound 441]
19 | – | – | > 0.1 | > 0.01 | – | CS(=O)(=O)n1ccc(C(=O)NCC(=O)Nc2nc(-c3cccc(N4CCC(F)(F)CC4)c3)cs2)c1 [Compound 241]
20 | > 0.1 | > 0.1 | – | – | – | Cc1ccc(Cl)c(-c2cc(-c3csc(NC(=O)CNC(=O)c4ccn(S(C)(=O)=O)c4)n3)ccc2C)n1 [Compound 401, N-(2-((4-(3-(3-chloro-6-methylpyridin-2-yl)-4-methylphenyl)thiazol-2-yl)amino)-2-oxoethyl)-1-(methylsulfonyl)-1H-pyrrole-3-carboxamide]
21 | > 0.01 | > 0.01 | – | – | – | CS(=O)(=O)n1ccc(C(=O)NCC(=O)Nc2nc(-c3cccc(OCC4(F)COC4)c3)cs2)c1 [Compound 502]
22 | – | – | < 0.01 | < 0.01 | – | COC[C@H](NC(=O)c1ccn(S(C)(=O)=O)c1)C(=O)Nc1nc(-c2cccc(-c3ccncn3)c2)cs1 [Compound 65, (S)—N-(3-methoxy-1-oxo-1-((4-(3-(pyrimidin-4-yl)phenyl)thiazol-2-yl)amino)propan-2-yl)-1-(methylsulfonyl)-1H-pyrrole-3-carboxamide]
23 | – | – | > 0.1 | > 0.1 | – | C[C@@H]1C[C@H](COc2cccc(-c3csc(NC(=O)CNC(=O)c4ccn(S(C)(=O)=O)c4)n3)c2)C[C@H](C)O1 [Compound 292]

Row | IC50 (BRG-1; [1]) [µM] | IC50 (BRM; [2]) [µM] | IC50 (BRG-1; [3]) [µM] | IC50 (BRM; [4]) [µM] | other results | SMILES
24 | > 0.01 | > 0.01 | – | – | – | CO[C@H]1C[C@@H](c2cccc(-c3csc(NC(=O)CNC(=O)c4ccn(S(C)(=O)=O)c4)n3)c2)C1 [Compound 479]
25 | – | – | – | – | IC50 (BRG-1; read-out: BRG1 IP50): > 0.1 µM; IC50 (BRM; read-out: BRM IP50): > 0.1 µM | N#CC1(n2cnc(C(=O)NCC(=O)Nc3nc(-c4cc(F)c5c(c4)OCC5)cs3)c2)CC1 [Compound 788]
26 | > 0.1 | > 0.01 | – | – | – | CC(C)(C)n1ccc(C(=O)NCC(=O)Nc2nc(-c3cccc(C4(CO)CC4)n3)cs2)c1 [Compound 495]
27 | – | – | < 0.01 | < 0.01 | – | COC[C@H](NC(=O)c1ccn(S(C)(=O)=O)c1)C(=O)Nc1nc(-c2cc(F)c(F)c(N3C[C@@H](C)O[C@@H](C)C3)c2)cs1 [Compound 380]
28 | – | – | – | – | IC50 (BRG-1; read-out: BRG1 IP50): > 0.01 µM; IC50 (BRM; read-out: BRM IP50): > 0.01 µM | C[C@@H]1CN(c2cccc(-c3csc(NC(=O)CNC(=O)c4cn(C(C)(C)C#N)cn4)n3)n2)C[C@H](C)O1 [Compound 819]
29 | – | – | < 0.01 | < 0.01 | – | CS(=O)(=O)n1ccc(C(=O)NCC(=O)Nc2nc(-c3cccc(-c4cccc(CN)c4)c3)cs2)c1 [Compound 53, N-(2-((4-(3′-(aminomethyl)-[1,1′-biphenyl]-3-yl)thiazol-2-yl)amino)-2-oxoethyl)-1-(methylsulfonyl)-1H-pyrrole-3-carboxamide]
30 | > 0.1 | > 0.1 | – | – | – | C[C@@H]1CN(c2cccc(-c3csc(NC(=O)[C@@H](C)NC(=O)c4ccn(S(C)(=O)=O)c4)n3)n2)C[C@H](C)O1 [Compound 768]
31 | > 0.01 | > 0.01 | – | – | – | CS(=O)(=O)n1ccc(C(=O)NCC(=O)Nc2nc(-c3ccc4c(c3)N(CC3COC3)CC4)cs2)c1 [Compound 486]
32 | > 0.01 | > 0.01 | – | – | – | CN1CCc2c(F)ccc(-c3csc(NC(=O)CNC(=O)c4ccn(S(C)(=O)=O)c4)n3)c21 [Compound 565]
33 | – | – | > 0.01 | > 0.01 | – | CS(=O)(=O)n1ccc(C(=O)NCC(=O)Nc2nc(-c3cccc(OCC4CCC4)c3)cs2)c1 [Compound 307]
34 | – | – | < 0.01 | < 0.01 | – | CS(=O)(=O)n1ccc(C(=O)NCC(=O)Nc2nc(-c3cccc(-c4ccncc4)c3)cs2)n1 [Compound 45, 1-(methylsulfonyl)-N-(2-oxo-2-((4-(3-(pyridin-4-yl)phenyl)thiazol-2-yl)amino)ethyl)-1H-pyrazole-3-carboxamide]
35 | > 0.01 | < 0.01 | – | – | – | CS(=O)(=O)n1ccc(C(=O)NCC(=O)Nc2nc(-c3ccc4c(c3)CCO4)cs2)c1 [Compound 619]
36 | – | – | > 0.01 | < 0.01 | – | Cn1ccc2ccc(-c3csc(NC(=O)CNC(=O)c4ccn(C(C)(C)C)c4)n3)cc2c1=O [Compound 123, 1-(tert-butyl)-N-(2-((4-(2-methyl-1-oxo-1,2-dihydroisoquinolin-7-yl)thiazol-2-yl)amino)-2-oxoethyl)-1H-pyrrole-3-carboxamide]
37 | > 0.01 | > 0.01 | – | – | – | C[C@H]1Cc2ccc(-c3csc(NC(=O)CNC(=O)c4ccn(S(C)(=O)=O)c4)n3)cc2O1 [Compound 527]
38 | – | – | > 1 | > 1 | – | COC(C)(C)Cn1ccc(C(=O)NCC(=O)Nc2nc(-c3cccc(-c4ccn(C)n4)c3)cs2)c1 [Compound 29, 1-(2-methoxy-2-methylpropyl)-N-(2-((4-(3-(1-methyl-1H-pyrazol-3-yl)phenyl)thiazol-2-yl)amino)-2-oxoethyl)-1H-pyrrole-3-carboxamide]
39 | > 0.01 | > 0.01 | – | – | – | COC[C@@H](NC(=O)c1ccn(S(C)(=O)=O)c1)C(=O)Nc1nc(-c2cc(F)c3c(c2)CCN3C)cs1 [Compound 759]
40 | > 0.1 | > 0.01 | – | – | – | CC(C)(C)n1ccc(C(=O)NCC(=O)Nc2nc(-c3cccc(N4CCC(S(C)(=O)=O)C4)n3)cs2)c1 (centres unmarked) [Compound 667]
41 | – | – | < 0.01 | < 0.01 | – | C[C@H]1CN(c2cccc(-c3csc(NC(=O)CNC(=O)c4ccn(S(C)(=O)=O)c4)n3)c2)CC[C@@H]1O [Compound 183, N-[2-[[4-[3-[(3S,4S)-4-hydroxy-3-methyl-1-piperidyl]phenyl]thiazol-2-yl]amino]-2-oxo-ethyl]-1-methylsulfonyl-pyrrole-3-carboxamide]
42 | > 0.01 | > 0.01 | – | – | – | C[C@@H]1CN(c2cncc(-c3csc(NC(=O)CNC(=O)c4ccn(S(C)(=O)=O)c4)n3)c2)C[C@H](C)O1 [Compound 686]
43 | > 0.01 | > 0.01 | – | – | – | COC[C@H](NC(=O)c1ccn(S(C)(=O)=O)c1)C(=O)Nc1nc(-c2ccc3c(c2)C(F)(F)CC3)cs1 [Compound 732]
44 | – | – | > 0.1 | > 0.01 | – | CC(C)(C#N)n1ccc(C(=O)NCC(=O)Nc2nc(-c3cccc(C#N)c3)cs2)c1 [Compound 34, N-(2-((4-(3-cyanophenyl)thiazol-2-yl)amino)-2-oxoethyl)-1-(2-cyanopropan-2-yl)-1H-pyrrole-3-carboxamide]
45 | – | – | > 0.1 | > 0.01 | – | COC1(C)CCN(c2cccc(-c3csc(NC(=O)CNC(=O)c4ccn(S(C)(=O)=O)c4)n3)c2)CC1 [Compound 96, N-(2-((4-(3-(4-methoxy-4-methylpiperidin-1-yl)phenyl)thiazol-2-yl)amino)-2-oxoethyl)-1-(methylsulfonyl)-1H-pyrrole-3-carboxamide]
46 | – | – | > 0.01 | > 0.01 | – | C[C@H](NC(=O)c1ccn(S(C)(=O)=O)c1)C(=O)Nc1nc(-c2cccc(-c3cnn(C)n3)c2)cs1 [Compound 355]
